Reference: patent US7884115B2, “Methods and compositions for the treatment of pain and other neurological conditions” (Allergan, Inc., priority 2004, dated 2011)

Legend:
[1] = test system: tactile allodynia in ligated Chung rats; assay: Chung model (spinal nerve ligation, tactile allodynia, von Frey hairs); type: in vivo; conditions: Chung rat, 30 min after administration
Description: One standard model for chronic pain involves the surgical ligation of the L5 (and optionally the L6) spinal nerves on one side in experimental animals. Rats recovering from the surgery gain weight and display a level of general activity similar to that of normal rats. However, these rats develop abnormalities of the foot, wherein the hindpaw is moderately everted and the toes are held together. More importantly, the hindpaw on the side affected by the surgery appears to become sensitive to pain from low-threshold mechanical stimuli, such as that producing a faint sensation of touch in a human, within about 1 week following surgery. […]
Tactile allodynia is measured prior to and 30 minutes after drug administration using von Frey hairs that are a series of fine hairs with incremental differences in stiffness. […] The applied force has been calculated to range from 0.41 to 15.1 grams. […] The 50% paw withdrawal threshold is determined using the method of Dixon, W. J., Ann. […] The post-drug threshold is compared to the pre-drug threshold and the percent reversal of tactile sensitivity is calculated based on a normal threshold of 15.1 grams.
Control rats are given the vehicle alone. Thirty (30) minutes following administration rats are brushed with Von Freys hairs and tactile allodynia is measured using the method of Dixon, as described above. […]

[2] = test system: allodynia induced by sulprostone; assay: Mouse sulprostone model of allodynia; type: in vivo; conditions: for attenuation of the allodynic response (analgesic activity): up to 1 mg/kg, 15 min before sulprostone 300 ng/kg IP, FIG. 3
Method: In this alternative model of chronic pain, allodynia can be induced in mice through intraperitoneal treatment of the animals with 300 ng/kg sulprostone (prostaglandin E2 receptor agonist) in 50% DMSO and in a volume of 5 μl. In this model, the pain response to stroking the flank with a paint brush is scored 8 times over a 35 minute period starting 15 minutes following spinal administration of sulprostone. Minami et al., 57 Pain 217-223 (1994), hereby incorporated by reference herein. Sulprostone treatment alone elicits a score of 12-13 on a 16-point scale.
In either model, the compounds are formulated in d-H2O and given in a volume of 1 ml/kg body weight for intraperitoneal (IP) dosing.
Six mice per group are rendered allodynic by injection of one of the following agents: 300 ng/kg sulprostone in DMSO IP, 100 ng/kg phenylephrine (PE) in dH2O IP, or 100 ng NMDA in DMSO intrathecally (IT). Fifteen minutes before administration of the allodynia-inducing agents, the experimental mice are given 1 mg/kg NB-DNJ. Thirty (30) minutes following administration of NB-DNJ, the allodynic response is monitored as described by brushing the flank of each mouse with a paint brush.
Five to six mice per group are rendered allodynic by injection of 300 ng/kg sulprostone IP. Fifteen minutes before inducement of an allodynic response, experimental mice are given one of the following: 1 mg/kg, 300 μg/kg, and 100 μg/kg NB-DNJ; 1 mg/kg N-butyldeoxymannojirimycin; 1 mg/kg N-5-carboxy-1-deoxynojirimycin; 1 mg/kg N-dodecyldeoxynojirimycin; 1 mg/kg N-ethyl-1-deoxynojirimycin; 1 mg/kg, 300 μg/kg, and 30 μg/kg D-glucaro-delta-lactam; 1 mg/kg 4-O-a-D-glucopyranosylmoranoline; 1 mg/kg nojirimycin bisulfite; 1 mg/kg nojirimycin-1-sulfonic acid; 1 mg/kg N-(n-nonyl)deoxynojirimycin; 1 mg/kg N(7-oxadecyl)deoxynojirimycin; and 1 mg/kg N-(7-oxa-9,9,9-trifluorononyl)deoxynojirimycin. The DMSO vehicle and sulprostone alone are used as controls.
Starting thirty (30) minutes following administration of NB-DNJ, the allodynic response of each mouse was monitored by brushing the flank of the mouse with a paint brush.
Five to six mice per group are rendered allodynic by injection of one of the following: 300 ng/kg sulprostone IP, 100 ng/kg phenylephrine (PE) IP, or 100 ng NMDA intrathecally (IT). Fifteen minutes prior to the induction of allodynia, the mice are given D-glucaro-delta-lactam IP at […], or 1 mg/kg. PE or NMDA-treated mice are given 1 mg/kg D-glucaro-delta-lactam IP.

| SMILES | analgesic activity (allodynic reversal) ([1]; 1 mg/kg and 3 mg/kg intraperitoneally, FIG. 5) | reversal of the allodynic response ([2]; 1 mg/kg given 15 min before sulprostone 300 ng/kg IP, FIG. 1) | attenuation of the allodynic response (analgesic activity) [2] | reversal of induced allodynia (reduction in allodynic response to Von Freys hair stimulus) ([1]; 1 mg/kg intraperitoneally, FIG. 6) |
| --- | --- | --- | --- | --- |
| CCCCN1C[C@H](O)[C@@H](O)[C@H](O)[C@H]1CO [NB-DNJ, N-butyl-1-deoxy-nojirimycin] | analgesic | significant reversal | attenuate the allodynic response |  |
| O=C(O)[C@H]1NC(=O)[C@H](O)[C@@H](O)[C@@H]1O [D-glucaro-delta-lactam] |  |  | attenuate the allodynic response | approximately 70% |
